Assay results: publication PMC11220790 (Molecular Pharmaceutics, 2024)
In brackets after ≈: the same amount, converted by molar mass. Where two headings read alike, the source gives them in different places.

How the values were obtained:
[1] = pKa and ΔpKa between DTIC and coformers; conditions: between DTIC and the coformer, Table S4
[2] = Intrinsic dissolution, rotating disk apparatus; assay type: physicochemical; conditions: for IDR (intrinsic dissolution rate) pH 6.8: phosphate buffer pH 6.8, 37.0 ± 0.5 °C, 100 rpm
Protocol: Intrinsic dissolution tests were carried out in triplicate using a rotating disk dissolution apparatus. […] The attachments containing the disks were immersed into 500 mL of phosphate buffer, pH 6.8, medium preheated at 37.0 ± 0.5 °C with the metallic rod rotating at 100 rpm.

[3] = Photostability in aqueous media (DTIC degradation / 2-AZA formation kinetics); assay type: physicochemical; conditions: for kg, photogeneration rate constant for 2-AZA: 5 mM solution, phosphate buffer pH 6.8, UV irradiation 5 h
Protocol: The mobile phase consisted of a mixture of 0.1% (v/v) aqueous formic acid solution (A) and acetonitrile (B), in a gradient elution mode (0.0–2.5 min: 0% B; 2.5–4.0 min: 0–6% B; 4.0–5.0 min: 6–0% B; and 5.0–7.0 min: 0% B), delivered at a flow rate of 0.8 mL min^–1. […] The method validation followed the ICH Q2 (R2) guideline.[31] The parameters selectivity, linearity, precision, accuracy, and limits of quantitation and detection were evaluated.
A triplicate of freshly prepared solutions at a concentration of 5 mM has been placed into clear glass vials and arranged at 30 cm from a black UV lamp (300 mm, 15 W) to be photoirradiated for 5 h.

[4] = Solid-state photodegradation test (black UV lamp chamber); conditions: for stability, % 2-AZA found / stability, % DTIC found: after 15 days in photostability chamber
[5] = Solid-state stability under accelerated degradation conditions (40 °C, 75% RH)
[6] = Thermal analysis (DSC and TG); assay type: physicochemical
Protocol: Thermogravimetric (TG) experiments were performed on a Shimadzu DTG-60 thermobalance, placing approximately 2.0 ± 0.2 mg of each sample in alumina pans and then heating at 10 °C min^–1 under a nitrogen flow (50 mL min^–1) from 25 to 600 °C. Differential scanning calorimetry (DSC) curves were obtained using a Shimadzu DSC-60 instrument. The samples (1.0 ± 0.2 mg) were placed in aluminum pans and heated at a constant rate of 10 °C min^–1 under a nitrogen flow (50 mL min^–1). According to TG data, the DSC measurements have been conducted until the degradation temperature of each compound. Shimadzu TA-60 software was employed in the data analysis.

[7] = weak base; cited from earlier work
[8] = physchem; conditions: 37 °C, thermodynamic from solid
[9] = freshly prepared (initial) solid sample
[10] = solid, after 90 days at 40 °C and 75% RH

Compound | ΔpKa (pKa(base) − pKa(acid)) [1] | increase of IDR compared to DTIC ([2]; phosphate buffer pH 6.8) | IDR (intrinsic dissolution rate) pH 6.8 [2] [mg cm^–2 min^–1] | kg, photogeneration rate constant for 2-AZA [3] [mM h^–1] | stability, % 2-AZA found [4] [%] | stability, % DTIC found [4] [%] | stability, % DTIC found [5, 9] [%] | stability, % DTIC found [5, 10] [%] | photodegradation in solution under UV radiation (in words) ([3]; low-pH and diluted solutions) | TG: thermally stable up to / mass loss begins at ([6]; 10 °C min^–1, nitrogen flow) | Tonset of DSC exothermic degradation peak ([6]; 10 °C min^–1, nitrogen flow) [°C] | Tonset of TG mass loss ([6]; 10 °C min^–1, nitrogen flow) [°C] | decomposition temperature (DSC exothermic degradation peak) ([6]; 10 °C min^–1, nitrogen flow) [°C] | solubility at 24 h ([8]; HCl solution, pH 1.2, simulated gastric fluid) [mg/mL] | solubility at 24 h ([8]; acetate buffer, pH 4.5, aqueous buffer) [mg/mL] | reduction in the drug content during the photostability test ([4]; 15 days UV exposure) [%] | Tonset of DSC exothermic degradation peak [6] [°C] | decomposition temperature (DSC exothermic degradation peak) [6] [°C] | IDR compared with DTIC (in words) ([2]; phosphate buffer pH 6.8) | pKa [7]
O=C(O)/C=C/C(=O)O [Fumaric acid] | 1.4 | – | – | – | – | – | – | – | – | – | – | – | – | – | – | – | – | – | – | –
O=C(O)/C=C\C(=O)O [Maleic acid] | 2.5 | – | – | – | – | – | – | – | – | – | – | – | – | – | – | – | – | – | – | –
CN(C)N=Nc1nc[nH]c1C(N)=O.CN(C)N=Nc1nc[nH]c1C(N)=O.O.O.O.O.O=C(O)CC(O)(CC(=O)O)C(=O)O [DTIC-HCIT, Dacarbazine Hydrogen-Citrate Salt-Cocrystal] | – | – | 0.35 ± 0.01 | 0.338 ± 0.03 | 1.8 ± 0.2 | 97.0 ± 0.4 | 99.8 ± 0.4 | 96.0 ± 0.5 | – | – | – | – | – | – | – | – | – | – | equivalent to those of DTIC | –

Continued, in another order:

ΔpKa (pKa(base) − pKa(acid)) [1] | increase of IDR compared to DTIC ([2]; phosphate buffer pH 6.8) | IDR (intrinsic dissolution rate) pH 6.8 [2] [mg cm^–2 min^–1] | kg, photogeneration rate constant for 2-AZA [3] [mM h^–1] | stability, % 2-AZA found [4] [%] | stability, % DTIC found [4] [%] | stability, % DTIC found [5, 9] [%] | stability, % DTIC found [5, 10] [%] | photodegradation in solution under UV radiation (in words) ([3]; low-pH and diluted solutions) | TG: thermally stable up to / mass loss begins at ([6]; 10 °C min^–1, nitrogen flow) | Tonset of DSC exothermic degradation peak ([6]; 10 °C min^–1, nitrogen flow) [°C] | Tonset of TG mass loss ([6]; 10 °C min^–1, nitrogen flow) [°C] | decomposition temperature (DSC exothermic degradation peak) ([6]; 10 °C min^–1, nitrogen flow) [°C] | solubility at 24 h ([8]; HCl solution, pH 1.2, simulated gastric fluid) [mg/mL] | solubility at 24 h ([8]; acetate buffer, pH 4.5, aqueous buffer) [mg/mL] | reduction in the drug content during the photostability test ([4]; 15 days UV exposure) [%] | Tonset of DSC exothermic degradation peak [6] [°C] | decomposition temperature (DSC exothermic degradation peak) [6] [°C] | IDR compared with DTIC (in words) ([2]; phosphate buffer pH 6.8) | Compound | pKa [7]
– | approximately 7.3 fold | 1.90 ± 0.06 | 0.371 ± 0.02 | 1.7 ± 0.2 | 98.4 ± 0.2 | 99.6 ± 0.4 | 98.2 ± 0.4 | – | – | – | – | – | – | – | – | – | – | – | CN(C)N=Nc1[nH]cnc1C(N)=O.O=C(O)C=CC(=O)O [DTIC-HMAL, Dacarbazine Hydrogen-Maleate Salt] | –
– | – | 0.26 ± 0.02 | 0.361 ± 0.04 | – | 94.4 ± 0.5 | 100.0 ± 0.2 | 99.8 ± 0.3 | Complete and rapid photodegradation | 208 °C | 210.8 | 206.5 | 215.5 | 20.4 ± 0.2 (≈ 112 mM) | 3.4 ± 0.2 (≈ 18.7 mM) | 5.6 | – | – | – | CN(C)/N=N/c1[nH]cnc1C(N)=O [DTIC, Dacarbazine, reference compound] | 4.4
– | ~5.1 fold | 1.31 ± 0.05 | 0.363 ± 0.02 | 1.1 ± 0.1 | 97.3 ± 0.2 | 99.5 ± 0.3 | 99.2 ± 0.2 | – | around 163 °C | – | 159.4 | – | – | – | – | 172.1 | 178.1 | – | CN(C)N=Nc1nc[nH]c1C(N)=O.O=C(O)/C=C/C(=O)O [DTIC-H2FUM, Dacarbazine-Fumaric Acid Cocrystal] | –
– | 22 fold | 5.58 ± 0.08 | 0.386 ± 0.03 | 2.2 ± 0.4 | 97.1 ± 0.3 | 100.1 ± 0.1 | 99.9 ± 0.2 | – | around 166 °C | – | 161.7 | – | – | – | – | 170.2 | 175.0 | – | CN(C)N=Nc1[nH]cnc1C(N)=O.O=C(O)C(=O)O [DTIC-HOXA, Dacarbazine Hydrogen-Oxalate Salt] | –
